In patent US11000033B2, “Ketone or oxime compound, and herbicide” (NISSAN CHEMICAL CORPORATION, priority 2014, dated 2021):

Legend:
Type in all cases: in vivo
Apera spica-venti = assay: Test Example 5: herbicidal effect by foliage application, plastic box (symbol L); settings: 320 g/ha, 3 weeks after application
In short: (§1)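 Greenhouse foliar test: seedlings at 14 days, grown 25° C. to 30° C. in sterilized diluvial soil; compound applied as an aqueous dilution of an emulsion; response read 3 weeks after spraying.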

Lolium multiflorum Lam. = assay: Test Example 5: herbicidal effect by foliage application, plastic box (symbol K); settings: 320 g/ha, 3 weeks after application
In short: as §1

rapeseed [1] = assay: Test Example 4: effect on crop by soil treatment (symbol g); settings: application herbicide amount 320 g/ha
In short: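 Crop seed is sown in spots together with several weed species in a box of sterilized diluvial soil. It is covered by about 1.5 cm of soil and kept in a greenhouse held between 25° C. and 30° C.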

[2] = tested on: Echinochloa crus-galli var. crus-galli; assay: Test Example 4: herbicidal effect by soil treatment (symbol H); settings: application herbicide amount 320 g/ha
In short: (§2)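 Seeds were sown in sterilized diluvial soil, covered with about 1.5 cm of soil, and the soil surface was sprayed with a water-diluted emulsion of the compound at a predetermined rate. Plants grew in a greenhouse at 25° C. to 30° C.; effects were scored visually 3 weeks after application.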

Setaria viridis = assay: Test Example 5: herbicidal effect by foliage application, plastic box (symbol G); settings: 320 g/ha, 3 weeks after application
In short: as §1

Monochoria vaginalis [3] = assay: Test Example 1: herbicidal activity, application before weed generation in submerged conditions (symbol C); settings: application herbicide amount 320 g/ha
In short: (§3)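 Mixed weed seeds sown in alluvial soil under 4 cm of water, with rice seedlings at the 2.5-leaf stage added. Same-day treatment: emulsion diluted to a set herbicide amount onto the water. Three weeks at 25–30 °C, then graded on a six-step scale.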

rapeseed [4] = assay: Test Example 5: effect on crop by foliage application, plastic box (symbol g); settings: 320 g/ha, 3 weeks after application
In short: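 Crop seed is sown alongside grass and broadleaf weed species in spots in sterilized diluvial soil, then covered to a depth of about 1.5 cm. Plants grow in a greenhouse kept at 25° C. to 30° C.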

Digitaria ciliaris = assay: Test Example 4: herbicidal effect by soil treatment (symbol F); settings: application herbicide amount 320 g/ha
In short: as §2

Amaranthus retroflexus = assay: Test Example 5: herbicidal effect by foliage application, plastic box (symbol N); settings: 320 g/ha, 3 weeks after application
In short: as §1

Scirpus juncoides [5] = assay: Test Example 2: herbicidal activity, application during weed generation in submerged conditions (symbol B); settings: Table 23; application herbicide amount 320 g/ha; grade 0-5 by criteria of Test Example 1
In short: (§4)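 Weeds emerging under flooded conditions were treated with compound formulated as an emulsion and diluted with water to the intended herbicide amount, poured onto the surface of 4 cm standing water. Seeds had been co-sown in alluvial soil; plants grew at 25° C. to 30° C. and were assessed after 3 weeks.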

Scirpus juncoides [6] = assay: Test Example 1: herbicidal activity, application before weed generation in submerged conditions (symbol B); settings: application herbicide amount 320 g/ha
In short: as §3

Veronica persica = assay: Test Example 5: herbicidal effect by foliage application, plastic box (symbol R); settings: 320 g/ha, 3 weeks after application
In short: as §1

Monochoria vaginalis [7] = assay: Test Example 2: herbicidal activity, application during weed generation in submerged conditions (symbol C); settings: Table 23; application herbicide amount 320 g/ha; grade 0-5 by criteria of Test Example 1
In short: as §4

| Compound | L: Apera spica-venti, herbicidal effect (criteria of Test Example 1) (Apera spica-venti) | K: Lolium multiflorum Lam., herbicidal effect (criteria of Test Example 1) (Lolium multiflorum Lam.) | Effect on crop grade, g: rapeseed (rapeseed [1]) | Herbicidal effect grade, H: Echinochloa crus-galli var. crus-galli [2] | G: Setaria viridis, herbicidal effect (criteria of Test Example 1) (Setaria viridis) | Herbicidal effect grade, C: Monochoria vaginalis (Monochoria vaginalis [3]) | g: rapeseed, effect on crop (criteria of Test Example 1) (rapeseed [4]) | Herbicidal effect grade, F: Digitaria ciliaris (Digitaria ciliaris) | N: Amaranthus retroflexus, herbicidal effect (criteria of Test Example 1) (Amaranthus retroflexus) | Herbicidal effect grade, B: Scirpus juncoides (Scirpus juncoides [5]) | Herbicidal effect grade, B: Scirpus juncoides (Scirpus juncoides [6]) | R: Veronica persica, herbicidal effect (criteria of Test Example 1) (Veronica persica) | Herbicidal effect grade, C: Monochoria vaginalis (Monochoria vaginalis [7]) |
| --- | --- | --- | --- | --- | --- | --- | --- | --- | --- | --- | --- | --- | --- |
| CON=C(C)CC1CC(O)=C(c2c(C)cccc2C)C1=O (centres unmarked) [6-112] | 5 (Herbicidal ratio of 90% or more (almost completely withered)) | 5 (Herbicidal ratio of 90% or more (almost completely withered)) | 0 (Herbicidal ratio of 5% or lower (almost no effect)) | 5 (Herbicidal ratio of 90% or more (almost completely withered)) | 5 (Herbicidal ratio of 90% or more (almost completely withered)) | 0 (Herbicidal ratio of 5% or lower (almost no effect)) | 4 (Herbicidal ratio of 70% or higher and lower than 90%) | 5 (Herbicidal ratio of 90% or more (almost completely withered)) | 1 (Herbicidal ratio of 5% or higher and lower than 20%) | 0 (Herbicidal ratio of 5% or lower (almost no effect)) | 0 (Herbicidal ratio of 5% or lower (almost no effect)) | 1 (Herbicidal ratio of 5% or higher and lower than 20%) | 0 (Herbicidal ratio of 5% or lower (almost no effect)) |
| CON=C(C)CC1CC(O)=C(c2c(F)cc(Br)cc2OC)C1=O (centres unmarked) [6-096] | 3 (Herbicidal ratio of 40% or higher and lower than 70%) | 5 (Herbicidal ratio of 90% or more (almost completely withered)) | 0 (Herbicidal ratio of 5% or lower (almost no effect)) | 4 (Herbicidal ratio of 70% or higher and lower than 90%) | – | 0 (Herbicidal ratio of 5% or lower (almost no effect)) | 4 (Herbicidal ratio of 70% or higher and lower than 90%) | 4 (Herbicidal ratio of 70% or higher and lower than 90%) | – | 0 (Herbicidal ratio of 5% or lower (almost no effect)) | 0 (Herbicidal ratio of 5% or lower (almost no effect)) | 3 (Herbicidal ratio of 40% or higher and lower than 70%) | 0 (Herbicidal ratio of 5% or lower (almost no effect)) |
| COc1cc(Br)cc(F)c1C1=C(O)CC(CC(C)=O)C1=O (centres unmarked) [7-029] | 3 (Herbicidal ratio of 40% or higher and lower than 70%) | 5 (Herbicidal ratio of 90% or more (almost completely withered)) | 0 (Herbicidal ratio of 5% or lower (almost no effect)) | 2 (Herbicidal ratio of 20% or higher and lower than 40%) | – | 0 (Herbicidal ratio of 5% or lower (almost no effect)) | 1 (Herbicidal ratio of 5% or higher and lower than 20%) | 0 (Herbicidal ratio of 5% or lower (almost no effect)) | – | – | 0 (Herbicidal ratio of 5% or lower (almost no effect)) | 0 (Herbicidal ratio of 5% or lower (almost no effect)) | – |
| CON=C(C)CC1CC(OC(=O)N2CCOCC2)=C(c2c(C)cc(-c3ccc(F)c(Cl)c3)cc2C)C1=O (centres unmarked) [6-093] | 5 (Herbicidal ratio of 90% or more (almost completely withered)) | 5 (Herbicidal ratio of 90% or more (almost completely withered)) | 0 (Herbicidal ratio of 5% or lower (almost no effect)) | 5 (Herbicidal ratio of 90% or more (almost completely withered)) | 5 (Herbicidal ratio of 90% or more (almost completely withered)) | 4 (Herbicidal ratio of 70% or higher and lower than 90%) | 4 (Herbicidal ratio of 70% or higher and lower than 90%) | 5 (Herbicidal ratio of 90% or more (almost completely withered)) | 3 (Herbicidal ratio of 40% or higher and lower than 70%) | 3 (Herbicidal ratio of 40% or higher and lower than 70%) | 5 (Herbicidal ratio of 90% or more (almost completely withered)) | 5 (Herbicidal ratio of 90% or more (almost completely withered)) | 3 (Herbicidal ratio of 40% or higher and lower than 70%) |
| CON=C(C)CC1CC(O)=C(c2c(C)cc(-c3ccc(Cl)cc3Cl)cc2C)C1=O (centres unmarked) [6-088] | 5 (Herbicidal ratio of 90% or more (almost completely withered)) | 5 (Herbicidal ratio of 90% or more (almost completely withered)) | 3 (Herbicidal ratio of 40% or higher and lower than 70%) | 5 (Herbicidal ratio of 90% or more (almost completely withered)) | 5 (Herbicidal ratio of 90% or more (almost completely withered)) | 0 (Herbicidal ratio of 5% or lower (almost no effect)) | 4 (Herbicidal ratio of 70% or higher and lower than 90%) | 5 (Herbicidal ratio of 90% or more (almost completely withered)) | 0 (Herbicidal ratio of 5% or lower (almost no effect)) | 2 (Herbicidal ratio of 20% or higher and lower than 40%) | 1 (Herbicidal ratio of 5% or higher and lower than 20%) | 5 (Herbicidal ratio of 90% or more (almost completely withered)) | 0 (Herbicidal ratio of 5% or lower (almost no effect)) |
| CON=C(C)CC1CC(OC(=O)COc2ccccc2)=C(c2c(C)cc(-c3ccc(Cl)cc3Cl)cc2C)C1=O (centres unmarked) [6-092] | 3 (Herbicidal ratio of 40% or higher and lower than 70%) | 5 (Herbicidal ratio of 90% or more (almost completely withered)) | 0 (Herbicidal ratio of 5% or lower (almost no effect)) | 3 (Herbicidal ratio of 40% or higher and lower than 70%) | 5 (Herbicidal ratio of 90% or more (almost completely withered)) | 0 (Herbicidal ratio of 5% or lower (almost no effect)) | 4 (Herbicidal ratio of 70% or higher and lower than 90%) | 5 (Herbicidal ratio of 90% or more (almost completely withered)) | 0 (Herbicidal ratio of 5% or lower (almost no effect)) | 0 (Herbicidal ratio of 5% or lower (almost no effect)) | 0 (Herbicidal ratio of 5% or lower (almost no effect)) | 4 (Herbicidal ratio of 70% or higher and lower than 90%) | 0 (Herbicidal ratio of 5% or lower (almost no effect)) |
| CON=C(C)CC1CC(OC(=O)N2CCOCC2)=C(c2c(C)cc(-c3ccc(Cl)cc3F)cc2C)C1=O (centres unmarked) [6-089] | 5 (Herbicidal ratio of 90% or more (almost completely withered)) | 4 (Herbicidal ratio of 70% or higher and lower than 90%) | 0 (Herbicidal ratio of 5% or lower (almost no effect)) | 1 (Herbicidal ratio of 5% or higher and lower than 20%) | – | 3 (Herbicidal ratio of 40% or higher and lower than 70%) | 4 (Herbicidal ratio of 70% or higher and lower than 90%) | 5 (Herbicidal ratio of 90% or more (almost completely withered)) | – | 2 (Herbicidal ratio of 20% or higher and lower than 40%) | 3 (Herbicidal ratio of 40% or higher and lower than 70%) | 4 (Herbicidal ratio of 70% or higher and lower than 90%) | 3 (Herbicidal ratio of 40% or higher and lower than 70%) |
